Experimental data published in ChEMBL document CHEMBL1201862, “PubChem BioAssay data set” (2004).
Calls of active or inactive are those of the source.

Assays:
[1] = system: HEK293; assay: optical interference in Abeta FP readout, dose response, artefact control for IDE activator project, biochemical, fluorescence polarization (AID 588442); format: functional, cell-based; conditions: Homo sapiens
[2] = biological target: Melanocortin receptor 4 (Homo sapiens, UniProt P32245); format: functional, cell-based;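 also: Cell-based assay with luminescence read-out, confirmatory dose-response testing for agonist activity of biased ligands at MC4R; human U2OS cells with tagged receptor and beta-arrestin; potency of agonists that increase receptor coupling to beta-arrestin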
[3] = biological target: T1, Insulin-degrading enzyme (Homo sapiens, UniProt P14735); assay: cellular IDE activation of Abeta substrate cleavage – fluorescence polarization, HEK cells, dose response (AID 588439); format: functional, cell-based
T1 sequence (P14735 whole entry): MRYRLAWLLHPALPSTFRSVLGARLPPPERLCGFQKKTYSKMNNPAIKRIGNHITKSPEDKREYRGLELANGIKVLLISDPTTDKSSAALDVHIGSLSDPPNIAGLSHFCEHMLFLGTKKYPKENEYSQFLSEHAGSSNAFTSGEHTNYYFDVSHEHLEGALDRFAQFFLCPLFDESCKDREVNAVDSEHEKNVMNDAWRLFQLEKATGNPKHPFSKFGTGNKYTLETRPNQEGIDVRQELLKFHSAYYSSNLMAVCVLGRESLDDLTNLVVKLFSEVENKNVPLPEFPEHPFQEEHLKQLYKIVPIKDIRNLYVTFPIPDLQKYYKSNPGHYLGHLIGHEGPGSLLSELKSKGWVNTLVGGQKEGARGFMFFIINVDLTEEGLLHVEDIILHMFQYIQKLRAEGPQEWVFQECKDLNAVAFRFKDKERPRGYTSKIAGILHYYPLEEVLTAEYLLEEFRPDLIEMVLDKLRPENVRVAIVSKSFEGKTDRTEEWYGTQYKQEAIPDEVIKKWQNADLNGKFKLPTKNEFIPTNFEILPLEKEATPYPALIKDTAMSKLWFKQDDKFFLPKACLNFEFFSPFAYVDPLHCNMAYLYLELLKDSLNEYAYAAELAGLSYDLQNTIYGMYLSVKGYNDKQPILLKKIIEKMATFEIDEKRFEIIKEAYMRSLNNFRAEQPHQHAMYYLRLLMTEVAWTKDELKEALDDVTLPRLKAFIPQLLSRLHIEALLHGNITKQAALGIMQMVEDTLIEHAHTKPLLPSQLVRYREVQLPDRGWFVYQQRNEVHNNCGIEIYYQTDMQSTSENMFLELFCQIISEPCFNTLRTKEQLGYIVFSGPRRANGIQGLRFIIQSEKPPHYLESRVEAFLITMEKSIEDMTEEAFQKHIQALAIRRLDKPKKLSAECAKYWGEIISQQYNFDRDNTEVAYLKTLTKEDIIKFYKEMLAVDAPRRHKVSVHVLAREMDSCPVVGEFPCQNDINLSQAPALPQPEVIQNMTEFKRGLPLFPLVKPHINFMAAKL

[4] = biological target: T2, Multidrug resistance protein CDR2 (Candida albicans (strain SC5314 / ATCC MYA-2876) (Yeast), UniProt P78595); assay: blockers of Nile Red efflux by Candida CDR2 – S. cerevisiae AD1-8u, singleplex, Cherry Pick2 set, dose response (AID 623994); format: functional; conditions: read-out: EC50_MICROM
T2 sequence (P78595 whole entry): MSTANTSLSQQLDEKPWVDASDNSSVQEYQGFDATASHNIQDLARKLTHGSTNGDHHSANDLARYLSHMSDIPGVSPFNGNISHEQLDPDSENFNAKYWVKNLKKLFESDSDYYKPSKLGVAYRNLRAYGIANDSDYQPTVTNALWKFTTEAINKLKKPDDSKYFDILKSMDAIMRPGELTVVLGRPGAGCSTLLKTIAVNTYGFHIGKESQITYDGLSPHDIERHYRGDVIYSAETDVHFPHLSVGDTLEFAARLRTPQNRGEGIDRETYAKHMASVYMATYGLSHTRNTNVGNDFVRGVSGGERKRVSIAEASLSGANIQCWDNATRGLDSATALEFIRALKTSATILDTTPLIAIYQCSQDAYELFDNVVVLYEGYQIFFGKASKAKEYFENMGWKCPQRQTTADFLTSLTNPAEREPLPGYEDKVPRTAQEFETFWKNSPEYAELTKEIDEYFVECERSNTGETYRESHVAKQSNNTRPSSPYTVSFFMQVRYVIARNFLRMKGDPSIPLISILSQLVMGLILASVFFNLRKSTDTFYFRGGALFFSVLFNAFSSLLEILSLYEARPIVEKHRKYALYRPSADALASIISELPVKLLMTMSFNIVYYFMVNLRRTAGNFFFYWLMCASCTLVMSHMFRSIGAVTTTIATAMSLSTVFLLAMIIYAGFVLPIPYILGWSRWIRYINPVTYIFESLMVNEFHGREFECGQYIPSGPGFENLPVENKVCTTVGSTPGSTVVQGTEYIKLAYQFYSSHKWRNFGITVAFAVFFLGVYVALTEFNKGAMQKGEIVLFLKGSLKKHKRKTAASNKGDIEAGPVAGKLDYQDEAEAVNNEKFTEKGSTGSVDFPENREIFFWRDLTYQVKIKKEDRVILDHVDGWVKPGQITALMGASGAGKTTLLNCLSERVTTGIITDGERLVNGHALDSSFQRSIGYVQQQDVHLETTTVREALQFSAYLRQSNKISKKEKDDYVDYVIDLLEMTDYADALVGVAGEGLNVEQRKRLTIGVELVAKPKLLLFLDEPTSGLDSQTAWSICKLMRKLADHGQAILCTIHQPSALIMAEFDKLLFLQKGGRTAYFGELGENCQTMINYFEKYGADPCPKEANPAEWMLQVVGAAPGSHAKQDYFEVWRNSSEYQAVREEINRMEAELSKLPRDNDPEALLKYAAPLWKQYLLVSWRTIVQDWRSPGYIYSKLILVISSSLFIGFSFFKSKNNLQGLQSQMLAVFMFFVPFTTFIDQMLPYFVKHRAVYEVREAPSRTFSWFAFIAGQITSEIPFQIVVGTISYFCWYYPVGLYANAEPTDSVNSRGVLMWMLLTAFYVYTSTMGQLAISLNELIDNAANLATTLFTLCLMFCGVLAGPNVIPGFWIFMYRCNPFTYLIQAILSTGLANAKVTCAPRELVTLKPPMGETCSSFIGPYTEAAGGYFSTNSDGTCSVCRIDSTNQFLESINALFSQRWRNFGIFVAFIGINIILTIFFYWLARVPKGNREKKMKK

[5] = biological target: T2, Multidrug resistance protein CDR2; assay: inhibition of Nile Red efflux via Candida CDR2 – S. cerevisiae AD1-8u, singleplex, Cherry Pick1 hits, dose response (AID 588604); format: functional
[6] = biological target: T1, Insulin-degrading enzyme; assay: recombinant IDE activation, cell-free – biochemical, fluorescence polarization, counter-screen for IDE activator project, dose response (AID 588681)
[7] = system: HEK293; assay: membrane integrity loss in HEK cells – cell-based, fluorescence, cytotoxicity control for IDE activator project, dose response (AID 588440); format: functional; conditions: Homo sapiens;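 also: cytotoxicity by LDH release measuring loss of membrane integrity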
[8] = biological target: Rho-associated protein kinase 1 (Homo sapiens, UniProt Q13464); format: functional;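 also: measured within a broad kinome-wide panel profiling many kinases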
[9] = biological target: Mitogen-activated protein kinase 8 (Homo sapiens, UniProt P45983); format: functional;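 also: value comes from one member of a kinome-wide kinase profiling panel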
[10] = biological target: Leucine-rich repeat serine/threonine-protein kinase 2 (Homo sapiens, UniProt Q5S007); format: functional;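 also: value from a broad kinome-wide panel profiling study in which LRRK2 was one of the kinases tested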
[11] = biological target: Dual specificity protein kinase CLK4 (Homo sapiens, UniProt Q9HAZ1); format: functional
[12] = biological target: BDNF/NT-3 growth factors receptor (Homo sapiens, UniProt Q16620); format: functional;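 also: NTRK2 measured as one member of a broad kinome-wide kinase profiling panel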
[13] = biological target: Leukocyte tyrosine kinase receptor (Homo sapiens, UniProt P29376); assay: Navigating the Kinome. Panel member name: LTK; format: functional
[14] = biological target: Aurora kinase B (Homo sapiens, UniProt Q96GD4); format: functional
[15] = biological target: Tyrosine-protein kinase ABL1 (Homo sapiens, UniProt P00519); format: functional
[16] = biological target: Insulin-like growth factor 1 receptor (Homo sapiens, UniProt P08069); assay: Navigating the Kinome. Panel member name: IGF1R; format: functional
[17] = biological target: Dual specificity mitogen-activated protein kinase kinase 1 (Homo sapiens, UniProt Q02750); assay: Navigating the Kinome. Panel member name: MAP2K1; format: functional
[18] = biological target: Mitogen-activated protein kinase 9 (Homo sapiens, UniProt P45984); format: functional;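 also: value from a kinome panel profiling assay, MAPK9 panel entry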
[19] = biological target: Inhibitor of nuclear factor kappa-B kinase subunit epsilon (Homo sapiens, UniProt Q14164); assay: Navigating the Kinome. Panel member name: IKBKE; format: functional
[20] = biological target: LIM domain kinase 1 (Homo sapiens, UniProt P53667); assay: Navigating the Kinome. Panel member name: LIMK1; format: functional
[21] = biological target: Vascular endothelial growth factor receptor 2 (Homo sapiens, UniProt P35968); format: functional
[22] = biological target: Tyrosine-protein kinase receptor TYRO3 (Homo sapiens, UniProt Q06418); format: functional;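 also: TYRO3 value obtained as one member of a kinome-wide profiling panel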
[23] = biological target: Serine/threonine-protein kinase PAK 4 (Homo sapiens, UniProt O96013); format: functional;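 also: value obtained within a kinome profiling panel in which PAK4 was one of the panel members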
Chain of Serine/threonine-protein kinase PAK 4 (O96013 whole entry): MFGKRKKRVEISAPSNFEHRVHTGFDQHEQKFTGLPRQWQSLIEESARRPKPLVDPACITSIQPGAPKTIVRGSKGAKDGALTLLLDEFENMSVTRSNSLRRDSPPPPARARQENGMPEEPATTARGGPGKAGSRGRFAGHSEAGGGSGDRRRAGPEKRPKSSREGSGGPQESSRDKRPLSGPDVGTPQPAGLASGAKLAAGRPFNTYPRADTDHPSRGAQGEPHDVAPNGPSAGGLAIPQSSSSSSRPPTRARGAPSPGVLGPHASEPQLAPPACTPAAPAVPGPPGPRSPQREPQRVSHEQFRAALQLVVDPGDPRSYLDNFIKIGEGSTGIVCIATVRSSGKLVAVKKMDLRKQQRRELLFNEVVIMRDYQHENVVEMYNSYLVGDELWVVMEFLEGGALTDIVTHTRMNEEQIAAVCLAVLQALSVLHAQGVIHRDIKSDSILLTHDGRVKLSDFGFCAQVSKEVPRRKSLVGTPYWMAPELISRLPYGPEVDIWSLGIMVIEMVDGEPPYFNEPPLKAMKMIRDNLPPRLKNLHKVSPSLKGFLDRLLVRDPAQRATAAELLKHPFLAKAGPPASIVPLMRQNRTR

[24] = biological target: Cyclin-dependent kinase 5 (Homo sapiens, UniProt Q00535); format: functional;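 also: CDK5 measured as one member of a kinase profiling panel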
[25] = biological target: Glycogen synthase kinase-3 alpha (Homo sapiens, UniProt P49840); format: functional;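 also: GSK3A result taken from a broad kinome-wide kinase panel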
[26] = biological target: Platelet-derived growth factor receptor alpha (Homo sapiens, UniProt P16234); assay: Navigating the Kinome. Panel member name: PDGFRA; format: functional
[27] = biological target: Macrophage colony-stimulating factor 1 receptor (Homo sapiens, UniProt P07333); format: functional;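 also: value comes from the Navigating the Kinome screening panel, CSF1R member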
[28] = biological target: High affinity nerve growth factor receptor (Homo sapiens, UniProt P04629); format: functional;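 also: NTRK1 tested as one member of a kinome-wide profiling panel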
[29] = biological target: Glycogen synthase kinase-3 beta (Homo sapiens, UniProt P49841); format: functional;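 also: value comes from a broad kinome profiling panel, with GSK3B as the panel member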
[30] = biological target: Mitogen-activated protein kinase kinase kinase kinase 2 (Homo sapiens, UniProt Q12851); format: functional;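 also: measured as one member of a kinome-wide kinase panel, with MAP4K2 as the panel entry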
[31] = biological target: Dual specificity tyrosine-phosphorylation-regulated kinase 1B (Homo sapiens, UniProt Q9Y463); assay: Navigating the Kinome. Panel member name: DYRK1B; format: functional
[32] = biological target: Tyrosine-protein kinase Lck (Homo sapiens, UniProt P06239); format: functional;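 also: lck was assayed as one member of a kinase panel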
[33] = biological target: Tyrosine-protein kinase Fyn (Homo sapiens, UniProt P06241); format: functional
[34] = biological target: Serine/threonine-protein kinase TBK1 (Homo sapiens, UniProt Q9UHD2); assay: Navigating the Kinome. Panel member name: TBK1; format: functional
[35] = biological target: Cyclin-dependent kinase 8 (Homo sapiens, UniProt P49336); assay: Navigating the Kinome. Panel member name: CDK8; format: functional
[36] = biological target: cAMP-dependent protein kinase catalytic subunit PRKX (Homo sapiens, UniProt P51817); format: functional
[37] = biological target: Vascular endothelial growth factor receptor 1 (Homo sapiens, UniProt P17948); format: functional;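 also: measured within a kinome-wide profiling panel, FLT1 as the panel member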
[38] = biological target: Receptor-type tyrosine-protein kinase FLT3 (Homo sapiens, UniProt P36888); format: functional;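 also: FLT3 was tested as one member of a kinome-wide kinase panel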
[39] = biological target: 5'-AMP-activated protein kinase catalytic subunit alpha-1 (Homo sapiens, UniProt Q13131); format: functional
[40] = biological target: Calcium/calmodulin-dependent protein kinase type II subunit alpha (Homo sapiens, UniProt Q9UQM7); assay: Navigating the Kinome. Panel member name: CAMK2A; format: functional
[41] = biological target: Tyrosine-protein kinase JAK2 (Homo sapiens, UniProt O60674); format: functional;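 also: JAK2 tested as one member of a kinase panel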
Chain of Tyrosine-protein kinase JAK2 (O60674 whole entry): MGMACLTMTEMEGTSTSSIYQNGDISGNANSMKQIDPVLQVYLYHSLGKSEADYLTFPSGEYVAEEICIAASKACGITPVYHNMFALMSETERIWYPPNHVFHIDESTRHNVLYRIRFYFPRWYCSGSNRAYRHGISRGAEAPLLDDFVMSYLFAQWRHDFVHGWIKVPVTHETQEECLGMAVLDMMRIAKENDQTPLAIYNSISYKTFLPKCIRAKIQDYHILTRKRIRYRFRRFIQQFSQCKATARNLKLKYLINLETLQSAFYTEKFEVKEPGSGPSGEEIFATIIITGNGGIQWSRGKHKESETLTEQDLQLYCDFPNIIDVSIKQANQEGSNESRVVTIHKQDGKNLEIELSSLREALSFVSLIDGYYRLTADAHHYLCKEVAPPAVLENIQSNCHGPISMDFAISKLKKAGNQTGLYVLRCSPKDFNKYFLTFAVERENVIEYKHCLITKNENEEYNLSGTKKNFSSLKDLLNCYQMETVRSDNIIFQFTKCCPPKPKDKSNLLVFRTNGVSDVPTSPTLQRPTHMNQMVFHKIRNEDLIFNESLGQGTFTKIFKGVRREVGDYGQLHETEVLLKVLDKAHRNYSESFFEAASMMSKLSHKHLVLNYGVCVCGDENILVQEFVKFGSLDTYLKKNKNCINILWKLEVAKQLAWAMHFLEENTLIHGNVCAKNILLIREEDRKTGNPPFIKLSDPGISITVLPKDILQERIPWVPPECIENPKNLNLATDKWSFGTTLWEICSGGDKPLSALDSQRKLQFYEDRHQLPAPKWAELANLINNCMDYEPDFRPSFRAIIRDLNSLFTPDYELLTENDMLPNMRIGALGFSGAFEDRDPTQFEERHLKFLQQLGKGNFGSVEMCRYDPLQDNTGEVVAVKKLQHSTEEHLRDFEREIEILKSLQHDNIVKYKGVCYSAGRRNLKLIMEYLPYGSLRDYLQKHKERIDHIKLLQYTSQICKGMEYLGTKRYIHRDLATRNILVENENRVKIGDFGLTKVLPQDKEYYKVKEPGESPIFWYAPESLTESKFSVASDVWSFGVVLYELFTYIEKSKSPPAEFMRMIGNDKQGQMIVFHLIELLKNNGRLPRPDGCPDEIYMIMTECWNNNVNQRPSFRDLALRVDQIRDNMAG

[42] = biological target: Tyrosine-protein kinase JAK3 (Homo sapiens, UniProt P52333); format: functional
[43] = biological target: Dual specificity protein kinase CLK2 (Homo sapiens, UniProt P49760); format: functional
[44] = biological target: Serine/threonine-protein kinase pim-1 (Homo sapiens, UniProt P11309); format: functional
Chain of Serine/threonine-protein kinase pim-1 (P11309 whole entry): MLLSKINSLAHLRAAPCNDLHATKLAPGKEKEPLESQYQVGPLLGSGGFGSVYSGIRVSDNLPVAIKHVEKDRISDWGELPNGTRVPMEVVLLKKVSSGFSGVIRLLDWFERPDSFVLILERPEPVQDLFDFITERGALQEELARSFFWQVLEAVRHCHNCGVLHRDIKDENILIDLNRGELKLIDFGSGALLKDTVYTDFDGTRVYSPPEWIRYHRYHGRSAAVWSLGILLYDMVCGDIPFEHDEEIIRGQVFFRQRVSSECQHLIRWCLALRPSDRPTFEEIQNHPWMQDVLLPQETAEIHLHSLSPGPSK

[45] = biological target: G protein-coupled receptor kinase 5 (Homo sapiens, UniProt P34947); assay: Navigating the Kinome. Panel member name: GPRK5; format: functional
[46] = biological target: Hepatocyte growth factor receptor (Homo sapiens, UniProt P08581); format: functional;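 also: kinase panel profiling across the kinome, with MET as the panel member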
[47] = biological target: ALK tyrosine kinase receptor (Homo sapiens, UniProt Q9UM73); format: functional;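 also: ALK tested as one member of a kinase panel screen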
[48] = biological target: Macrophage-stimulating protein receptor (Homo sapiens, UniProt Q04912); assay: Navigating the Kinome. Panel member name: MST1R; format: functional
[49] = biological target: Fibroblast growth factor receptor 1 (Homo sapiens, UniProt P11362); format: functional
[50] = biological target: Dual specificity mitogen-activated protein kinase kinase 2 (Homo sapiens, UniProt P36507); assay: Navigating the Kinome. Panel member name: MAP2K2; format: functional
[51] = biological target: Death-associated protein kinase 3 (Homo sapiens, UniProt O43293); format: functional;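 also: measured as one member of a kinome-wide profiling panel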
[52] = biological target: Serine/threonine-protein kinase TAO1 (Homo sapiens, UniProt Q7L7X3); format: functional
[53] = biological target: Serine/threonine-protein kinase Chk1 (Homo sapiens, UniProt O14757); format: functional;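 also: measured as one member of a kinome-wide kinase profiling panel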
Chain of Serine/threonine-protein kinase Chk1 (O14757 whole entry): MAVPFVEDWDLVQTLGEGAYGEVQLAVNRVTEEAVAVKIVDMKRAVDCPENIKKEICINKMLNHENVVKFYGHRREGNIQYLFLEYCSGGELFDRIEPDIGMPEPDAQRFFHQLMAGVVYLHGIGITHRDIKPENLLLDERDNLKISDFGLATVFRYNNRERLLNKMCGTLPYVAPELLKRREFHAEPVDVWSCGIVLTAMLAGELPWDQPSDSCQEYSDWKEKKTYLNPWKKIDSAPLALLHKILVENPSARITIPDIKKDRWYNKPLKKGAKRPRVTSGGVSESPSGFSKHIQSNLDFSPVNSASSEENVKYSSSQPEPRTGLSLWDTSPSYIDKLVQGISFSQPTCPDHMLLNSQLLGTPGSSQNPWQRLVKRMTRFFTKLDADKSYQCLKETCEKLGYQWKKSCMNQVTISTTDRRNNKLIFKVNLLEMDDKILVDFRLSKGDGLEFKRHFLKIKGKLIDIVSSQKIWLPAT

[54] = biological target: Activin receptor type-1 (Homo sapiens, UniProt Q04771); assay: Navigating the Kinome. Panel member name: ACVR1; format: functional
[55] = biological target: Serine/threonine-protein kinase D3 (Homo sapiens, UniProt O94806); format: functional;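 also: determined within a kinase panel screen, with PRKCN as the panel member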
[56] = biological target: Activated CDC42 kinase 1 (Homo sapiens, UniProt Q07912); assay: Navigating the Kinome. Panel member name: ACK1; format: functional
[57] = biological target: Protein kinase C theta type (Homo sapiens, UniProt Q04759); assay: Navigating the Kinome. Panel member name: PRKCQ; format: functional
[58] = biological target: Serine/threonine-protein kinase Nek2 (Homo sapiens, UniProt P51955); format: functional
Chain of Serine/threonine-protein kinase Nek2 (P51955 whole entry): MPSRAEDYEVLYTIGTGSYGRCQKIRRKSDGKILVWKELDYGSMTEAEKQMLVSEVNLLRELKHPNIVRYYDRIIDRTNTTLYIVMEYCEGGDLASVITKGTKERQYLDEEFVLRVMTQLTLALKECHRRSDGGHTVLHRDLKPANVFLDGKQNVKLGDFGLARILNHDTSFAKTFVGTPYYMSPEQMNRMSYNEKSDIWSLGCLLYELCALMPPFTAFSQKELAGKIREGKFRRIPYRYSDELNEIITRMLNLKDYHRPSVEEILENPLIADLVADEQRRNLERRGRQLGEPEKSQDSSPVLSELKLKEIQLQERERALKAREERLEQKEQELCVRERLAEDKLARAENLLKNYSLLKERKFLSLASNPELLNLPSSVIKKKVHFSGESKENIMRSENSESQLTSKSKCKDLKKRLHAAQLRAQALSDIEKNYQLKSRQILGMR

[59] = biological target: Cyclin-dependent kinase 7 (Homo sapiens, UniProt P50613); format: functional;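 also: value comes from a kinome-wide kinase profiling panel in which CDK7 is one member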
[60] = biological target: Mitogen-activated protein kinase 14 (Homo sapiens, UniProt Q16539); format: functional;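 also: part of a kinome-wide panel, MAPK14 entry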
Chain of Mitogen-activated protein kinase 14 (Q16539 whole entry): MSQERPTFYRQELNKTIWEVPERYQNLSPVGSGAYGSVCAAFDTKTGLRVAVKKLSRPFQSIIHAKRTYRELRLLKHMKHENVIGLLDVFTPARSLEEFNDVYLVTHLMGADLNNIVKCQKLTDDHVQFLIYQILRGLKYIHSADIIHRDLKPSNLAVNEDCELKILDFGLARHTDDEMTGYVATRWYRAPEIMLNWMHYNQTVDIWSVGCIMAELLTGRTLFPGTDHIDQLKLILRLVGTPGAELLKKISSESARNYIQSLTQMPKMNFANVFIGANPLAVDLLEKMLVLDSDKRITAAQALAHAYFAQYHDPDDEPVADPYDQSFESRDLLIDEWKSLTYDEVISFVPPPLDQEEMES

[61] = biological target: Melanin-concentrating hormone receptor 1 (Homo sapiens, UniProt Q99705); assay: Late-stage fluorescence-based counterscreen for antagonists of the G-protein coupled receptor 7 (GPR7): cell-based dose response assay to identify antagonists of the melanin-concentrating hormone receptor 1 (MCHR1) Set 5.; format: functional
[62] = biological target: T3, Neuropeptides B/W receptor type 1 (Homo sapiens, UniProt P48145); assay: human NPBW1 receptor blockade, IC50 – cell-based, fluorescence, dose response, set 5, late-stage follow-up (AID 588566); format: functional
T3 sequence (P48145 whole entry): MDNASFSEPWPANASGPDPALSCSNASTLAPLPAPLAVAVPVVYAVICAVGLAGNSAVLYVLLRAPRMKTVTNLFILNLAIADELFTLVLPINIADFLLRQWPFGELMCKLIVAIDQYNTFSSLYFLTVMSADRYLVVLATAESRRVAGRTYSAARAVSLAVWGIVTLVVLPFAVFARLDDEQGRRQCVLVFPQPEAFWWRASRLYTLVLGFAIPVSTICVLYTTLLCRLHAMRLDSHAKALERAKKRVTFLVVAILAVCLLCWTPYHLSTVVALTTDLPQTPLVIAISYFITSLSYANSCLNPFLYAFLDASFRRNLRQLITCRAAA

Cc1ccc2sc(N(CCCN(C)C)C(=O)c3ccc(Br)s3)nc2c1C
active: EC50 [4] 50.5 µM | EC50 [5] 10.3 µM
inactive: EC50 [1] > 54.7 µM | EC50 [2] > 89.2 µM | EC50 [3] 20.1 µM | EC50 [6] > 54.7 µM | IC50 [7] 35.3 µM

Cc1cc(OCc2ccc(Cl)c(Cl)c2)ccc1CN1CC(C(=O)O)C1
active: Ki [8] 3.16 µM | Ki [26] 0.2 µM
inactive: Ki [9] > 5.01 µM | Ki [10] > 2.51 µM | Ki [11] > 2.51 µM | Ki [12] > 3.98 µM | Ki [13] > 2.51 µM | Ki [14] > 3.98 µM | Ki [15] > 2.51 µM | Ki [16] > 2.51 µM | Ki [17] > 3.16 µM | Ki [18] > 3.98 µM | Ki [19] > 3.16 µM | Ki [20] > 3.16 µM | Ki [21] > 2.51 µM | Ki [22] > 3.16 µM | Ki [23] > 5.01 µM | Ki [24] > 3.16 µM | Ki [25] > 3.98 µM | Ki [27] > 2.51 µM | Ki [28] > 3.16 µM | Ki [29] > 3.98 µM | Ki [30] > 2.51 µM | Ki [31] > 2.51 µM | Ki [32] > 6.31 µM | Ki [33] > 6.31 µM | Ki [34] > 3.16 µM | Ki [35] > 3.98 µM | Ki [36] > 3.16 µM | Ki [37] > 3.98 µM | Ki [38] > 3.16 µM | Ki [39] > 3.16 µM | Ki [40] > 3.98 µM | Ki [41] > 2.51 µM | Ki [42] > 5.01 µM | Ki [43] > 3.98 µM | Ki [44] > 6.31 µM | Ki [45] > 3.98 µM | Ki [46] > 2.51 µM | Ki [47] > 6.31 µM | Ki [48] > 3.98 µM | Ki [49] > 3.98 µM | Ki [50] > 3.98 µM | Ki [51] > 5.01 µM | Ki [52] > 6.31 µM | Ki [53] > 3.16 µM | Ki [54] > 3.98 µM | Ki [55] > 3.98 µM | Ki [56] > 3.98 µM | Ki [57] > 2.51 µM | Ki [58] > 3.16 µM | Ki [59] > 3.98 µM | Ki [60] > 3.98 µM

Cc1ccc(Oc2c(Cl)cnn(Cc3cccc4ccccc34)c2=O)cc1
active: IC50 [61] 8.23 µM | IC50 [62] 2.57 µM
